The record followed here is patent US8940896B2, “Tetra-cyclic carboline derivatives useful in the inhibition of angiogenesis” (PTC Therapeutics, Inc., priority 2004, dated 2015).

This experiment relates to VEGF. The experiment is described as follows: Hypoxia-inducible endogenous VEGF expression, VEGF ELISA assay. Conditions: HeLa cells, hypoxic conditions (1% O2, 5% CO2), VEGF in conditioned media. Type of experiment: cell-based. The procedure:
The ability of the compounds of the invention to modulate hypoxia-inducible endogenous VEGF expression may be analyzed as follows. VEGF protein levels may be monitored by an ELISA assay (R&D Systems). Briefly, HeLa cells may be cultured for 24-48 hours under hypoxic conditions (1% O2, 5% CO2, balanced with nitrogen) in the presence or absence of a compound of the invention. The conditioned media may then be assayed by ELISA, and the concentration of VEGF calculated from the standard ELISA curve of each assay.
A dose-response analysis may be performed using the ELISA assay and conditions described above. The conditions for the dose-response ELISA are analogous to those described above. A series of, e.g., seven different concentrations may be analyzed. In parallel, a dose-response cytotoxicity assay may be performed using CellTiter Glo (Promega) under the same conditions as the ELISA to ensure that the inhibition of VEGF expression was not due to the cytotoxicity. Dose-response curves may be plotted using percentage inhibition versus concentration of the compound, and EC50 and CC50 values may be generated for each compound with the maximal inhibition set as 100% and the minimal inhibition as 0%.

The structures appear in SMILES notation.

Consider `COc1ccc(C2c3[nH]c4ccc(Br)cc4c3CC3C(=O)N(C4CCCCC4)C(=S)N32)cc1` (centres unmarked) [Compound 186], for which the EC50 was less than 8 nM. Same read-out and setting: for `O=C1C2Cc3c([nH]c4ccc(Br)cc34)C(c3ccc4c(c3)OCO4)N2C(=S)N1C1CCCCC1` (centres unmarked) [Compound 9] the value was 8 to 40 nM.

For `CCN1C(=O)C2Cc3c([nH]c4ccc(C)cc34)C(c3ccc(OC)cc3)N2C1=O` (centres unmarked) [Compound 33], for the setting “Homo sapiens, HeLa”, the 50% effective concentration (EC50) is 40 to 200 nM. Molecule `COc1cccc(C2c3[nH]c4ccccc4c3CC3C(=O)N(C4CCCCC4)C(=S)N32)c1` (racemic) [Compound 2] registered a concentration for a half-maximal effect (EC50) (Homo sapiens, HeLa) of more than 1000 nM. On the same count and under the same terms, then `COc1ccc(C2c3[nH]c4ccc(Br)cc4c3CC3C(=O)N(c4ccc(C(=O)O)cc4)C(=S)N32)cc1` (centres unmarked) [Compound 200], with 8 to 40 nM; and `COc1ccc(C2c3[nH]c4ccccc4c3CC3C(=O)N(C(C)C)C(=S)N32)cc1` (centres unmarked) [Compound 42], with 200 to 1000 nM; and `COc1ccc(C2c3[nH]c4ccccc4c3CC3C(=O)N(C)C(=S)N32)c(OC)c1OC` (centres unmarked) [Compound 73], with more than 1000 nM. The molecule `C=CCN1C(=O)C2Cc3c([nH]c4ccccc34)C(c3ccccc3OC)N2C1=S` (centres unmarked) [Compound 85] yielded a half-maximal effective concentration (EC50) of more than 1000 nM. Take `O=C1C2Cc3c([nH]c4ccc(Cl)cc34)C(c3ccc(OCCN4CCOCC4)cc3)N2C(=S)N1C1CCCCC1` (centres unmarked) [Compound 113]: the EC50 (Homo sapiens, HeLa) is less than 8 nM.

On to `O=C1C2Cc3c([nH]c4ccccc34)C(c3cccc(Cl)c3)N2C(=S)N1CCc1ccccc1` (centres unmarked) [Compound 38], for which, for the setting “Homo sapiens, HeLa”, the EC50 is more than 1000 nM. For `COc1ccccc1C1c2[nH]c3ccccc3c2CC2C(=O)N(c3ccccc3)C(=S)N21` (centres unmarked) [Compound 88], the EC50 (Homo sapiens, HeLa) is more than 1000 nM. Take `COc1ccc(C2c3[nH]c4ccccc4c3CC3C(=O)N(C4CCCCC4)C(=S)N32)cc1` (centres unmarked) [Compound 40]: for the setting “Homo sapiens, HeLa”, the EC50 was 200 to 1000 nM. Where the note is “Homo sapiens, HeLa”, `O=C1C2Cc3c([nH]c4ccc(Br)cc34)C(C3CCCCC3)N2C(=S)N1C1CCCCC1` (centres unmarked) [Compound 30] came in with an EC50 of 40 to 200 nM. Turning to `COc1ccc(C2c3[nH]c4ccccc4c3CC3C(=O)N(C4CCCCC4)C(=O)N32)cc1` (centres unmarked) [Compound 54], the EC50 was more than 1000 nM. Molecule `COc1ccccc1C1c2[nH]c3ccccc3c2CC2C(=O)N(c3ccc(C)cc3)C(=S)N21` (centres unmarked) [Compound 91] gave a half-maximal effective concentration (EC50) (Homo sapiens, HeLa) of more than 1000 nM. Still for that read-out and setting: for `COc1ccc(C2c3[nH]c4ccccc4c3CC3C(=O)N(c4ccc(C)cc4)C(=S)N32)cc1` (centres unmarked) [Compound 46] the value was more than 1000 nM.

`COc1ccc(C2c3[nH]c4ccc(Br)cc4c3CC3C(=O)N(C4CCCC4)C(=S)N32)cc1` (centres unmarked) [Compound 21]: the 50% effective concentration (EC50) (Homo sapiens, HeLa) is less than 8 nM.

`O=C1C2Cc3c([nH]c4ccccc34)C(c3cccc(Cl)c3)N2C(=S)N1C1CCCCC1` (centres unmarked) [Compound 36] gave an EC50 (Homo sapiens, HeLa) of more than 1000 nM. The same measure, in the same setting: for `COc1ccccc1C1c2[nH]c3ccccc3c2CC2C(=O)N(Cc3ccccc3)C(=S)N21` (centres unmarked) [Compound 93] the value was more than 1000 nM; for `COC(=O)c1ccc(N2C(=O)C3Cc4c([nH]c5ccc(Br)cc45)C(c4ccc(OC)cc4)N3C2=S)cc1` (centres unmarked) [Compound 139], 8 to 40 nM; for `CC(C)N1C(=O)C2Cc3c([nH]c4ccc(Br)cc34)C(c3ccc(OCCCn4cncn4)cc3)N2C1=S` (centres unmarked) [Compound 184], less than 8 nM. Same read-out and setting: then `COc1ccc(C2c3[nH]c4ccc(Br)cc4c3CC3C(=O)N(c4ccc(C(F)(F)F)cc4)C(=S)N32)cc1` (centres unmarked) [Compound 163], with less than 8 nM.

For the setting “Homo sapiens, HeLa”, `COc1ccc(C2c3[nH]c4ccc(Br)cc4c3CC3C(=O)N(c4cccc(Br)c4)C(=S)N32)cc1` (centres unmarked) [Compound 175] displayed an EC50 of less than 8 nM. The same measure, in the same setting: then `COCCOc1ccc(C2c3[nH]c4ccc(Cl)cc4c3CC3C(=O)N(C4CCCCC4)C(=S)N32)cc1` (centres unmarked) [Compound 116], with less than 8 nM. The same measure, in the same setting: for `COc1ccc(C2c3[nH]c4ccccc4c3CC3C(=O)N(c4ccccc4)C(=O)N32)cc1` (centres unmarked) [Compound 50] the value was more than 1000 nM. For the setting “Homo sapiens, HeLa”, `O=C1C2Cc3c([nH]c4ccccc34)C(c3ccc4c(c3)OCO4)N2C(=S)N1C1CCCCC1` (centres unmarked) [Compound 3] registered an EC50 of more than 1000 nM. For the molecule `CC(C)N1C(=O)C2Cc3c([nH]c4ccc(Cl)cc34)C(c3ccc(-n4ccnc4)cc3)N2C1=O` (centres unmarked) [Compound 123], the EC50 (Homo sapiens, HeLa) lay in the range of 200 to 1000 nM. Same read-out and setting: for `CN1C(=O)C2Cc3c([nH]c4ccccc34)C(c3ccc(F)cc3)N2C1=S` (centres unmarked) [Compound 63] the value was more than 1000 nM. With `COc1ccc(C2c3[nH]c4ccc(Br)cc4c3CC3C(=O)N(c4cccc(C(F)(F)F)c4)C(=S)N32)cc1` (centres unmarked) [Compound 162], the half-maximal effective concentration (EC50) (Homo sapiens, HeLa) is less than 8 nM. Same read-out and setting: for `O=C1C2Cc3c([nH]c4ccc(Br)cc34)C(c3ccc4c(c3)OCO4)N2C(=S)N1C1CC1` (centres unmarked) [Compound 18] the value was less than 8 nM. On the same count and under the same terms, for `CC(C)N1C(=O)C2Cc3c([nH]c4ccc(Br)cc34)C(c3ccc(-n4ccnc4)cc3)N2C1=S` (centres unmarked) [Compound 128] the value was 8 to 40 nM. Under “Homo sapiens, HeLa”, `CC(C)N1C(=O)C2Cc3c([nH]c4ccc(Cl)cc34)C(c3ccc(N4CCOCC4)cc3)N2C1=O` (centres unmarked) [Compound 122] registered an EC50 of 200 to 1000 nM. `COc1cccc(C2c3[nH]c4ccccc4c3CC3C(=O)N(c4ccccc4)C(=S)N32)c1` (centres unmarked) [Compound 57] registered a 50% effective concentration (EC50) (Homo sapiens, HeLa) of more than 1000 nM. Same read-out and setting: then `CN1C(=O)C2Cc3c([nH]c4ccccc34)C(c3ccc(Cl)c(Cl)c3)N2C1=S` (centres unmarked) [Compound 53], with more than 1000 nM; and `O=C1C2Cc3c([nH]c4ccc(Br)cc34)C(c3ccc(OCCN4CCOCC4)cc3)N2C(=S)N1C1CCCC1` (centres unmarked) [Compound 104], with less than 8 nM; and `O=C1C2Cc3c([nH]c4ccccc34)C(C3CCCCC3)N2C(=S)N1C1CCCC1` (centres unmarked) [Compound 11], with 200 to 1000 nM. In turn, `COc1cccc(C2c3[nH]c4ccccc4c3CC3C(=O)N(C4CC4)C(=S)N32)c1` (centres unmarked) [Compound 6] showed a concentration giving a half-maximal response (EC50) (Homo sapiens, HeLa) of more than 1000 nM. Same read-out and setting: for `COc1ccc(C2c3[nH]c4ccc(OC)cc4c3CC3C(=O)N(C4CCCCC4)C(=O)N32)cc1` (centres unmarked) [Compound 24] the value was 40 to 200 nM; for `CC(C)N1C(=O)C2Cc3c([nH]c4ccc(Cl)cc34)C(c3ccc(-c4ccncc4)cc3)N2C1=S` (centres unmarked) [Compound 134], 8 to 40 nM; for `COCCCN1C(=O)C2Cc3c([nH]c4ccc(Cl)cc34)C(c3ccc(OCCOC)cc3)N2C1=S` (centres unmarked) [Compound 110], 8 to 40 nM. Molecule `O=C1C2Cc3c([nH]c4ccccc34)C(c3ccc4c(c3)OCO4)N2C(=S)N1C1CCCC1` (centres unmarked) [Compound 14] came in with an EC50 (Homo sapiens, HeLa) of 200 to 1000 nM. `COc1ccc(C2c3[nH]c4ccc(Br)cc4c3CC3C(=O)N(c4cccc(C#N)c4)C(=S)N32)cc1` (centres unmarked) [Compound 146] had a concentration for a half-maximal effect (EC50) (Homo sapiens, HeLa) of less than 8 nM. The same measure, in the same setting: then `CC(C)NCCCOc1ccc(C2c3[nH]c4ccc(Br)cc4c3CC3C(=O)N(C(C)C)C(=S)N32)cc1` (centres unmarked) [Compound 155], with less than 8 nM; and `COc1ccc(C2c3[nH]c4ccc(Br)cc4c3CC3C(=O)N(c4ccc(OC(C)=O)cc4)C(=S)N32)cc1` (centres unmarked) [Compound 141], with less than 8 nM. As to `COCCN(CCCOc1ccc(C2c3[nH]c4ccc(Br)cc4c3CC3C(=O)N(C(C)C)C(=S)N32)cc1)CCOC` (centres unmarked) [Compound 156], where the note is “Homo sapiens, HeLa”, the EC50 lay within 8 to 40 nM. In the case of `COc1ccc(C2c3[nH]c4ccccc4c3CC3C(=O)N(C4CCCCC4)C(=S)N32)cc1` (centres unmarked) [Compound 41], the EC50 lay in the range of 200 to 1000 nM. Molecule `CCOCN(C)CCCOc1ccc(C2c3[nH]c4ccc(Br)cc4c3CC3C(=O)N(c4ccc(Cl)cc4)C(=S)N32)cc1` (centres unmarked) [Compound 197] yielded an EC50 (Homo sapiens, HeLa) of 8 to 40 nM. `COc1cccc(C2c3[nH]c4ccc(Br)cc4c3CC3C(=O)N(C4CC4)C(=S)N32)c1` (centres unmarked) [Compound 16] had an EC50 of less than 8 nM. Molecule `CCN1C(=O)C2Cc3c([nH]c4ccccc34)C(c3ccc(OC)cc3)N2C1=O` (centres unmarked) [Compound 66] displayed an EC50 (Homo sapiens, HeLa) of more than 1000 nM.

`COc1ccccc1C1c2[nH]c3ccccc3c2CC2C(=O)N(C)C(=S)N21` (centres unmarked) [Compound 76]: the EC50 (Homo sapiens, HeLa) is more than 1000 nM. The same measure, in the same setting: for `O=C1C2Cc3c([nH]c4ccc(Br)cc34)C(c3ccc(OCCCN4CCOCC4)cc3)N2C(=S)N1c1ccc(Cl)cc1` (centres unmarked) [Compound 192] the value was less than 8 nM. Turning to `COc1ccc(C2c3[nH]c4ccccc4c3CC3C(=O)N(c4ccccc4C(C)C)C(=S)N32)cc1` (centres unmarked) [Compound 74], under “Homo sapiens, HeLa”, the EC50 is more than 1000 nM. Still for that read-out and setting: for `COc1ccc(C2c3[nH]c4ccc(Br)cc4c3CC3C(=O)N(c4ccccc4C(C)C)C(=S)N32)cc1` (centres unmarked) [Compound 183] the value was 40 to 200 nM. The same measure, in the same setting: then `COc1ccc(C2c3[nH]c4ccc(Br)cc4c3CC3C(=O)N(c4ccc(Cl)cc4)C(=S)N32)cc1` (centres unmarked) [Compound 138], with less than 8 nM; and `O=C1C2Cc3c([nH]c4ccc(Cl)cc34)C(c3ccc4c(c3)OCO4)N2C(=O)N1C1CCCCC1` (centres unmarked) [Compound 31], with 40 to 200 nM; and `Cc1ccc2[nH]c3c(c2c1)CC1C(=O)N(C2CCCCC2)C(=O)N1C3c1ccc2c(c1)OCO2` (centres unmarked) [Compound 44], with 200 to 1000 nM. Still for that read-out and setting: for `CN(C)CCCOc1ccc(C2c3[nH]c4ccc(Br)cc4c3CC3C(=O)N(C4CCCCC4)C(=S)N32)cc1` (centres unmarked) [Compound 112] the value was less than 8 nM. For `CC(C)N1C(=O)C2Cc3c([nH]c4ccc(Br)cc34)C(c3ccc(OCCCN4CCCCC4)cc3)N2C1=S` (centres unmarked) [Compound 151], the EC50 (Homo sapiens, HeLa) is less than 8 nM. Still for that read-out and setting: for `CCC(C)N1C(=O)C2Cc3c([nH]c4ccc(Br)cc34)C(c3ccc(C(C)C)cc3)N2C1=S` (centres unmarked) [Compound 95] the value was less than 8 nM. `COc1ccc(C2c3[nH]c4ccc(Br)cc4c3CC3C(=O)N(C4CCCCC4)C(=S)N32)cc1` (centres unmarked) [Compound 187] came in with a half-maximal effective concentration (EC50) of more than 1000 nM. Under “Homo sapiens, HeLa”, `COCCOc1ccc([C@@H]2c3[nH]c4ccc(Br)cc4c3C[C@H]3C(=O)N(C4CCCCC4)C(=S)N23)cc1` [Compound 148] registered a 50% effective concentration (EC50) of 200 to 1000 nM. Still for that read-out and setting: then `COCCCN1C(=O)C2Cc3c([nH]c4ccccc34)C(c3ccc(OC)cc3)N2C1=S` (centres unmarked) [Compound 62], with more than 1000 nM.

Usually EC50 stands for the concentration that produces a half-maximal response. Lower therefore signals greater potency.
